Values of other authors, collected in PMC6234229, “The role of loops B and C in determining the potentiation of GABAA receptors by midazolam” (Pharmacology Research & Perspectives, 2018).

Legend:
[1] = test system: α3β1γ2 receptors; parameters: method as in PMID 1646944, PMID 8381510; conditions: cited from earlier work
[2] = test system: α6‐containing GABAA receptors; conditions: cited from earlier work

CN1C(=O)CN=C(c2ccccc2)c2cc(Cl)ccc21 [diazepam]
potentiation of α3β1γ2 vs α1β1γ2 receptors [1]: potentiated α3β1γ2 receptors more than α1β1γ2 receptors

CC#CCOC(=O)c1c(C)nc2sc3c(c2c1N)CCC(O)C3 (stereo not drawn) [SB‐205384]
potentiation of α6‐ vs α3‐containing GABAA receptors [2]: potentiate α6‐containing GABAA receptors even more strongly than α3

CN1C(=O)CN=C(c2ccccc2F)c2cc([N+](=O)[O-])ccc21 [flunitrazepam]
potentiation of α3β1γ2 vs α1β1γ2 receptors [1]: potentiated α3β1γ2 receptors more than α1β1γ2 receptors
